Here are results for four substances from patent US7718613B2, “Armed peptides” (priority 2001, dated 2010).

The star is where a group is joined. Myristoyl = CCCCCCCCCCCCCC(=O)*

A short description of test [1]: Detection of VTB epitope and VTB subunit by pH arming liposomal assay.
Test [2] is described as follows: Cloaking of peptide activity with pH and DNA binding, calcein liposome lysis. Here is the method: Calcein liposomes containing (5 μM lipid) were added to 2 ml phosphate buffered saline containing the peptide (0.4 μM) and the fluorescence recorded. This was carried out at pH values of 6.6 and 7.4. The fluorescence intensity indicative of leakage after five minutes was expressed as a % of lysis obtained with 10 μl of 10% Triton-X100. the latter taken to represent 100% lysis. The experiment was repeated whereby the peptide was pre-condensed with calf thymus DNA (Sigma) at charge ratio to give minimum lysis at pH 7.4. […] Thus the DNA condensate of the peptide would require both the de-condensation and slightly acidic conditions to cause lysis. Cloaking of peptides with DNA binding and pH has obvious advantages when delivering genes via the endosome route where low pH is encountered. A combination of highly anionic region (towards the N terminal end of peptide 13 table 1 residues LEAALAEALEAL) and highly cationic region (the c terminal end of peptide 13 table 1, residues RRRRQQ,) within the same polypeptide sequence is critical to this fuction.
To assess condensation of DNA to peptide and its effect on cytolytic activity, assays were performed at several different pH values and at different peptide to DNA ratios. […] The peptide or complexes have a property of retaining high basic character on one end which is essential for DNA binding while retaining highly acidic character on the other half of the molecule which is critical for pH switching.

Test [3] in a line: Liposome-peptide integral complex: pH-triggered calcein release and stability. To be noted: after Sepharose CL-6B column, FIG. 8A. From the text:
A fatty acid incorporated on the N-terminal of peptide anchors the sequence with liposomes to form integral complex which can then be used as single stable reagent that can be triggered to release the contents-of the liposomoes when the pH is ideal (i.e physiological 7.4) or acidic (e.g 6.2). In the first instance we prepared the liposome-peptide complex at a predetermined ratio of lipid-to peptide (30:1) in pH 8 buffer using peptide 10. […] The complex between liposomes and peptide was formed by adding peptide to […] of 10 mM NaP containing 140 mM NaCl, 1 mM EDTA, 5 mM Hepes pH 8 buffer, containing 100 μl of calcein encapsulating liposomes. The mixture was incubated for 20 mins to form the complex prior to use. In order to ascertain that the lysis is occurring due to the formation of complex and not as the action of the peptide per se it was essential to purify the liposome-peptide complex. The peptide to lipid ratio in this complex is 1:30. The complex was applied to a Sepharose CL-6B column. Fractions corresponding to liposomes were collected as clearly visible to the eye. Aliquots of these fractions were then tested for lytic activity at acidic and physiological pH values. The key aim was to establish that the peptide is liposome associated and would thus be eluted with liposome fraction in the void volume. We used 100 μl complex (a column purified fraction) and followed the release of Calcein at two different pH values.
FIG. 8A. […] Upper curve pH 5.8. Lower curve pH 7.4.
2 ml buffer (10 mM Na phosphate, 140 mM NaCl, 1 mM EDTA, 5 mM HEPES)+50 μl purified complex. Lipsomes used were 50 nm extruded. Curves top to bottom are pH 6.2, 6.4, 6.7, 7.0, 7.4
Complex 20 μl liposomes+60 μl pH 8 buffer+20 μl peptide (0.1 mg/ml) prepared and used within 2 minutes. 10 μl was added to each of the cuvettes containing 2 ml buffers. Top curve pH 6.2 (triton was added towards the end indicated by sharp dip in fluorescence to check full lysis), the lower curve is at pH 7.4. Samples measured simultaneously.
5 μL of complex in 2 ml of buffer tested 20 minutes after preparation. Upper curve pH 6.2, Lower curve pH 7.4.
5 μL of complex in 2 ml of buffer tested 5 hrs after preparation. Upper curve pH 6.2 and lower curve pH 7.4.
5 μL of complex in 2 ml of buffer tested 24 hrs after preparation curve pH 6.2, Lower curve pH 7.4.

The nature of test [4]: Activation of phosphorylated peptide by alkaline phosphatase, calcein liposome lysis. As to the method:
Alkaline phosphatase (bovine intestinal mucosa) obtained from Sigma was used for dephosphorylation of peptide at the serine phosphate. A 10 μl of Peptide solution (0.01 mg/ml) was added to 2 ml of 10 mM HEPES buffer at pH 6.8 and 10 units of alkaline phosphatase added. After allowing 10-minute incubation for dephosphorylation calcein liposomes (5 μM lipid) were added and fluorescence intensity recorded using wavelengths of 490 nm for excitation and 520 nm for emission. Control experiment was conducted in the absence of alkaline phosphates. […] Thus the enzyme treatment yielded the dephosphorylated peptide resulting in activation of the peptide under mildly acidic conditions 3 μl of 0.1 mg/ml of peptide 12 (table 1) was incubated for 10 minutes with alkaline phosphatase in 20 μl 10 mM Tris-HCL pH 8 buffer. This was then added (see arrow on FIG. 14B) to 2 ml PBS pH 6.6 buffer containing 3 μl of calcein liposomes (3 mg/ml lipid concentration). Fluorescence was recorded as a function of time with excitation and emission wavelengths of 490 nm and 520 nm respectively. A similar experiment was carried out in the absence of alkaline phosphatase.

In the case of “Myr-EAALAEALAEALAEGK(ELFTNR)PALISWRRRLQQ-amide [peptide 6]”, the “detection of VTB subunit by release of calcein” value in test [1] (VTB subunit competing for anti-epitope antibody, pH 6.8, FIG. 7) is on record as “could also be detected”. Further, in test [1] (analogous to parent Peptide 2), the “pH sensitivity of cytolytic activity” value is listed as “pH sensitive”. The “detection of VTB epitope by release of calcein” value in test [1] (free epitope (ELFTNR) competing for 6 μg anti-epitope antibody, FIG. 6) is “could be detected”.
Take “Myr-LEAALAEALEALAAGKPALISWIRRRRQQ-Amide (Myristoyl-LEAALAEALEALAAGKPALISWIRRRRQQ-NH2; SMILES CCCCCCCCCCCCCC(=O)N[C@@H](CC(C)C)C(=O)N[C@@H](CCC(=O)O)C(=O)N[C@@H](C)C(=O)N[C@@H](C)C(=O)N[C@@H](CC(C)C)C(=O)N[C@@H](C)C(=O)N[C@@H](CCC(=O)O)C(=O)N[C@@H](C)C(=O)N[C@@H](CC(C)C)C(=O)N[C@@H](CCC(=O)O)C(=O)N[C@@H](C)C(=O)N[C@@H](CC(C)C)C(=O)N[C@@H](C)C(=O)N[C@@H](C)C(=O)NCC(=O)N[C@@H](CCCCN)C(=O)N1CCC[C@H]1C(=O)N[C@@H](C)C(=O)N[C@@H](CC(C)C)C(=O)N[C@H](C(=O)N[C@@H](CO)C(=O)N[C@@H](Cc1c[nH]c2ccccc12)C(=O)N[C@H](C(=O)N[C@@H](CCCNC(=N)N)C(=O)N[C@@H](CCCNC(=N)N)C(=O)N[C@@H](CCCNC(=N)N)C(=O)N[C@@H](CCCNC(=N)N)C(=O)N[C@@H](CCC(N)=O)C(=O)N[C@@H](CCC(N)=O)C(N)=O)[C@@H](C)CC)[C@@H](C)CC) [Peptide 13]”: the “lysis of calcein liposomes when no DNA is present” value in test [2] (0.4 μM peptide, pH 6.6 vs 7.4, five minutes, FIG. 15) is “activated by acidic pH”. Also, in test [2] (DNA substantially dissociated), the “cytolytic activity with DNA at acidic pH” value was “activity is regained”. The “effect of DNA binding on peptide activity” value in test [2] (pre-condensed with calf thymus DNA, FIG. 15) is “substantial inactivation”. Besides, in test [2] (several peptide to DNA ratios), the “cytolytic activity bound to DNA at physiological pH” value was “inactive”.
For the substance “Myr-WBALAEALAEALAEHLAKALAEALEALAA-Amide [peptide 10]”, the “Calcein release from purified liposome-peptide complex at pH 5.8” value in test [3] (peptide to lipid 1:30, pH 5.8) is “acid triggered release”. Further, in test [3] (peptide to lipid 1:30, pH 7.4), the “Calcein release from purified liposome-peptide complex at pH 7.4” value is recorded as “little or no release”.
Turning to “Myr-WEA ALA EAL AEA S(Phospho)AE HLA RAL AEA LEA LAA-Amide [peptide 12]”, the “dye release in the presence of alkaline phosphatase, pH 6.8” value in test [4] (10 units alkaline phosphatase, 10 mM HEPES pH 6.8, FIG. 14A) is given as “substantial dye release”. In addition, the “dye release, enzyme treated peptide, pH 6.6” value in test [4] (alkaline phosphatase pre-incubation pH 8, then PBS pH 6.6, FIG. 14B curve 1) was “release of the dye”. Further, the “dye release, non-treated peptide, pH 6.6” value in test [4] (no alkaline phosphatase, PBS pH 6.6, FIG. 14B curve 2) was “no or little rate increase”. In test [4] (no alkaline phosphatase, pH 6.8, FIG. 14A), the “dye release in the absence of enzyme, pH 6.8” value is on record as “low release”.
